Test results from US7060822B1, “2-pyrazolin-5-ones” (Abbott GmbH & Co. KG, priority 1999, dated 2006).

Work on `O=C1NN=C(c2ccc[nH]2)C1=Cc1ccc[nH]1` [Example 67, 3-(Pyrrol-2-yl)-4-[(pyrrol-2-yl)methylene]-2-pyrazolin-5-one] yielded a melting point of 245 to 247 °C. `Cc1c[nH]c(C=C2C(=O)NN=C2C2CC2)c1` [Example 68, 3-Cyclopropyl-4-[(4-methylpyrrol-2-yl)methylene]-2-pyrazolin-5-one] gave a melting point of 212 to 215 °C. Compound `Cc1c[nH]c(C=C2C(=O)NN=C2c2nc3ccccc3s2)c1` [Example 69, 3-(Benzothiazol-2-yl)-4-[(4-methylpyrrol-2-yl)methylene]-2-pyrazolin-5-one] has a melting point of 327 to 329 °C. For `Cc1ccc(C=C2C(=O)NN=C2C2CC2)[nH]1` [Example 72, 3-Cyclopropyl-4-[(5-methylpyrrol-2-yl)methylene]-2-pyrazolin-5-one], the melting point was 170 to 172 °C. Work on `CCc1ccc(C=C2C(=O)NN=C2C2CC2)[nH]1` [Example 74, 3-Cyclopropyl-4-[(5-ethylpyrrol-2-yl)methylene]-2-pyrazolin-5-one] yielded a melting point of 163 to 165 °C. With `CCOC(=O)c1c(C)[nH]c(C=C2C(=O)NN=C2C2CC2)c1C` [Example 75, 3-Cyclopropyl-4-[(3,5-dimethyl-4-ethoxycarbonylpyrrol-2-yl)methylene]-2-pyrazolin-5-one] the melting point was 240 to 242 °C. For `CC(C)OC1=NNC(=O)C1=Cc1ccc(-c2ccccc2)[nH]1` [Example 76, 3-Isopropoxy-4-[(5-phenylpyrrol-2-yl)methylene]-2-pyrazolin-5-one], the melting point was 212 to 214 °C. For `O=C1NN=C(C2CC2)C1=Cc1cccn1CCCCO` [Example 81, 3-Cyclopropyl-4-{[1-(4-hydroxybutyl)pyrrol-2-yl]methylene]-2-pyrazolin-5-one], the melting point was 134 to 136 °C. Work on `Cc1c(CCC(=O)O)c[nH]c1C=C1C(=O)NN=C1OC(C)C` [Example 82, 4-{[4-(2-Carboxyethyl)-3-methylpyrrol-2-yl]methylene}-3-isopropoxy-2-pyrazolin-5-one] yielded a melting point of 267 to 269 °C. In the case of `Cc1[nH]c(C=C2C(=O)NN=C2OC(C)C)c(C)c1C(=O)O` [Example 83, 4-[(4-Carboxy-3,5-dimethylpyrrol-2-yl)methylene]-3-isopropoxy-2-pyrazolin-5-one], the melting point is reported as > 300 °C. Compound `Cc1[nH]c(C=C2C(=O)NN=C2OC(C)C)c(C)c1CN1CCOCC1` [Example 85, 4-[(3,5-Dimethyl-4-morpholinomethylpyrrol-2-yl)methylene]-3-isopropoxy-2-pyrazolin-5-one] has a melting point of 162 to 164 °C. Work on `Cc1[nH]c(C=C2C(=O)NN=C2OC(C)C)c(C)c1CN(C)C` [Example 86, 4-[(3,5-Dimethyl-4-dimethylaminomethylpyrrol-2-yl)methylene]-3-isopropoxy-2-pyrazolin-5-one] yielded a melting point of 173 to 175 °C. For `CC(=O)c1c(C)[nH]c(C=C2C(=O)NN=C2OC(C)C)c1C` [Example 87, 4-[(4-Acetyl-3,5-dimethylpyrrol-2-yl)methylene]-3-isopropoxy-2-pyrazolin-5-one], the melting point was 209 to 210 °C. Work on `Cc1[nH]c(C=C2C(=O)NN=C2OC(C)C)c(C)c1C(=O)OCCN(C)C` [Example 88, 4-{[4-(2-Dimethylaminoethoxycarbonyl)-3,5-dimethylpyrrol-2-yl]methylene}-3-isopropoxy-2-pyrazolin-5-one] yielded a melting point of 165 to 167 °C. `CCOC(=O)c1ccc(C=C2C(=O)NN=C2OC(C)C)[nH]1` [Example 90, 4-[(5-Ethoxycarbonylpyrrol-2-yl)methylene]-3-isopropoxy-2-pyrazolin-5-one] gave a melting point of 205 to 207 °C. Work on `CC(C)OC1=NNC(=O)C1=Cc1ccc(C(=O)O)[nH]1` [Example 91, 4-[(5-Carboxypyrrol-2-yl)methylene]-3-isopropoxy-2-pyrazolin-5-one] yielded a melting point of 235 to 237 °C. With `O=C(CC1=NNC(=O)C1=Cc1ccc[nH]1)Nc1ccc(Cl)cc1` [Example 92, 3-(4-Chlorophenylaminocarbonylmethyl)-4-[(pyrrol-2-yl)methylene]-2-pyrazolin-5-one] the melting point was 240 to 242 °C. With `O=C1NN=C(C2CC2)C1=Cc1ccc(-c2ccccc2)[nH]1` [Example 93, 3-Cyclopropyl-4-[(5-phenylpyrrol-2-yl)methylene]-2-pyrazolin-5-one] the melting point was 208 to 210 °C. `CCc1c(C)[nH]c(C=C2C(=O)NN=C2C2CCOC2)c1C` (centres unmarked) [Example 94, 4-[(3,5-Dimethyl-4-ethylpyrrol-2-yl)methylene]-3-(tetrahydrofuran-3-yl)-2-pyrazolin-5-one] gave a melting point of 163 to 165 °C. For `Cc1[nH]c(C=C2C(=O)NN=C2C2CC2)c(C)c1C(=O)O` [Example 95, 4-[(4-Carboxy-3,5-dimethylpyrrol-2-yl)methylene]-3-cyclopropyl-2-pyrazolin-5-one], the melting point was 312 °C (dec.). For `CCOC(=O)c1c(C)[nH]c(C=C2C(=O)NN=C2c2cccnc2)c1C` [Example 96, 4-[(3,5-dimethyl-4-ethoxycarbonylpyrrol-2-yl)methylene]-3-(3-pyridyl)-2-pyrazolin-5-one], the melting point was 247 to 249 °C. `Cc1[nH]c(C=C2C(=O)NN=C2C2CC2)c(C)c1CN1CCOCC1` [Example 97, 3-Cyclopropyl-4-[(3,5-dimethyl-4-morpholinomethylpyrrol-2-yl)methylene]-2-pyrazolin-5-one] gave a melting point of 175 to 177 °C. Compound `Cc1c[nH]c(C=C2C(=O)NN=C2c2cnccn2)c1C` [Example 98, 4-[(3,4-dimethylpyrrol-2-yl)methylene]-3-pyrazinyl-2-pyrazolin-5-one] has a melting point of 245 to 250 °C. In the case of `Cc1c(CCC(=O)O)c[nH]c1C=C1C(=O)NN=C1C1CC1` [Example 99, 4-{[4-(2-Carboxyethyl)-3-methylpyrrol-2-yl]methylene}-3-cyclopropyl-2-pyrazolin-5-one], the melting point is reported as 290 °C (dec.). `Cc1[nH]c(C=C2C(=O)NN=C2C2CC2)c(C)c1CN(C)C` [Example 100, 3-Cyclopropyl-4-[(3,5-dimethyl-4-dimethylaminomethylpyrrol-2-yl)methylene]-2-pyrazolin-5-one] gave a melting point of 176 to 178 °C. In the case of `COC(=O)CCC1=NNC(=O)C1=Cc1ccc[nH]1` [Example 103, 3-(2-Methoxycarbonylethyl)-4-[(pyrrol-2-yl)methylene]-2-pyrazolin-5-one], the melting point is reported as 134 to 136 °C. For `CCOC(=O)C1=NNC(=O)C1=Cc1ccc[nH]1` [Example 104, 3-Ethoxycarbonyl-4-[(pyrrol-2-yl)methylene]-2-pyrazolin-5-one], the melting point was 177 to 179 °C. `CC(C)C1=NNC(=O)C1=Cc1ccc[nH]1` [Example 105, 3-Isopropyl-4-[(pyrrol-2-yl)methylene]-2-pyrazolin-5-one] gave a melting point of 120 to 122 °C. With `O=C1NN=C(C2CCCCC2)C1=Cc1ccc[nH]1` [Example 107, 3-Cyclohexyl-4-[(pyrrol-2-yl)methylene]-2-pyrazolin-5-one] the melting point was 176 to 178 °C. For `O=C1NN=C(C2CC2)C1=Cc1ccc(CN2CCOCC2)[nH]1` [Example 109, 3-Cyclopropyl-4-[(5-morpholinomethylpyrrol-2-yl)methylene]-2-pyrazolin-5-one], the melting point was 184 to 186 °C. For `O=C1NN=C(C2CC2)C1=Cc1ccc(C(=O)O)[nH]1` [Example 110, 4-[(5-Carboxypyrrol-2-yl)methylene]-3-cyclopropyl-2-pyrazolin-5-one], the melting point was 220 °C (dec.). In the case of `CCOC1=NNC(=O)C1=Cc1cc(Cl)c[nH]1` [Example 111, 4-[(4-Chloropyrrol-2-yl)methylene]-3-ethoxy-2-pyrazolin-5-one], the melting point is reported as 237 to 239 °C. Work on `CCOC1=NNC(=O)C1=Cc1cc(Br)c[nH]1` [Example 112, 4-[(4-Bromopyrrol-2-yl)methylene]-3-ethoxy-2-pyrazolin-5-one] yielded a melting point of 242 to 244 °C. In the case of `CCOC1=NNC(=O)C1=Cc1ccc(Cl)[nH]1` [Example 113, 4-[(5-Chloropyrrol-2-yl)methylene]-3-ethoxy-2-pyrazolin-5-one], the melting point is reported as 170 to 172 °C. In the case of `O=C1NN=C(C2CC2)C1=Cc1cc(Cl)c[nH]1` [Example 114, 4[(4-Chloropyrrol-2-yl)methylene]-3-cyclopropyl-2-pyrazolin-5-one], the melting point is reported as 220 °C (dec.). In the case of `O=C1NN=C(C2CC2)C1=Cc1cc(Br)c[nH]1` [Example 115, 4-[(4-Bromopyrrol-2-yl)methylene]-3-cyclopropyl-2-pyrazolin-5-one], the melting point is reported as 210 °C (dec.). `Cc1[nH]c(C=C2C(=O)NN=C2c2cnccn2)c(C)c1C(=O)O` [Example 118, 4-[(4-Carboxy-3,5-dimethylpyrrol-2-yl)methylene]-3-pyrazinyl-2-pyrazolin-5-one] gave a melting point of 225 to 228 °C. Compound `Cc1[nH]c(C=C2C(=O)NN=C2C2CC2)c(C)c1C(=O)OCCN(C)C` [Example 119, 3-Cyclopropyl-4-{[3,5-dimethyl-4-(2-dimethylaminoethyloxycarbonyl)pyrrol-2-yl]methylene}-2-pyrazolin-5-one] has a melting point of 172 to 174 °C. `Cc1[nH]c(C=C2C(=O)NN=C2c2cnccn2)c(C)c1C(=O)OCCN(C)C` [Example 120, 4-{[3,5-Dimethyl-4(2-dimethylaminoethyloxycarbonyl)pyrrol-2-yl]methylene}-3-pyrazinyl-2-pyrazolin-5-one] gave a melting point of 223 to 225 °C. `Cc1[nH]c(C=C2C(=O)NN=C2c2cnccn2)c(C)c1CN(C)C` [Example 121, 4-[(3,5-Dimethyl-4-dimethylaminomethylpyrrol-2-yl)methylene]-3-pyrazinyl-2-pyrazolin-5-one] showed a melting point of 220 to 222 °C. In the case of `Cc1[nH]c(C=C2C(=O)NN=C2c2cnccn2)c(C)c1CN(C)C.O=C(O)/C=C\C(=O)O` [Example 122, 4-[(3,5-Dimethyl-4-dimethylaminomethylpyrrol-2-yl)methylene]-3-pyrazinyl-2-pyrazolin-5-one maleate], the melting point is reported as 206 to 210 °C. Work on `Cc1cc(C)c(C=C2C(=O)NN=C2c2ccccn2)[nH]1` [Example 124, 4-[(3,5-Dimethylpyrrol-2-yl)methylene]-3-(2-pyridyl)-2-pyrazolin-5-one] yielded a melting point of 228 to 230 °C. In the case of `CCc1c(C)[nH]c(C=C2C(=O)NN=C2c2ccccn2)c1C` [Example 125, 4-[(3,5-Dimethyl-4-ethylpyrrol-2-yl)methylene]-3-(2-pyridyl)-2-pyrazolin-5-one], the melting point is reported as 184 to 186 °C. In the case of `Cc1cc(C)c(C=C2C(=O)NN=C2c2ccco2)[nH]1` [Example 127, 4-[(3,5-dimethylpyrrol-2-yl)methylene]-3-(2-furyl)-2-pyrazolin-5-one], the melting point is reported as 235 to 237 °C.
